Data taken from patent US8617555B2, “Pharmaceutical compositions comprising activated-potentiated antibodies to human insulin receptor and endothelial nitric oxide (NO) synthase” (priority 2010, dated 2013).

Key:
[1] = tested on: rats with streptozotocin-induced diabetes mellitus; test: Fasting blood plasma glucose level in rats with streptozotocin-induced diabetes mellitus; format: in vivo, Wistar rats; conditions: STZ rats
Description: In the study, 150 male Wistar were used (weight at beginning of study 250-300 g, age 3.5-4 months). 10 rats were intact. The rest were intravenously injected with streptozotocin at the dose of 50 mg/kg (experimental model of diabetes mellitus). […] Intact rats received distilled water in the same volume. On days 7, 14 and 21 of injection of preparations in rats, fasting blood plasma glucose level measured with enzymatic method (glucose oxidase method) with utilization of “glucose FKD” kits (Russia).

[2] = tested on: rats with streptozotocin-induced diabetes mellitus; test: Oral glucose tolerance test (OGTT) on day 14 in rats with streptozotocin-induced diabetes mellitus; format: in vivo, Wistar rats; conditions: STZ rats; day 14 of injection; glucose 1 g/kg per os; administered alone
Description: The rats were starving at water for 18 hours. 60 min before the test they were last given test substances. Intact rats received distilled water in the same volume. Glucose was administered per os 50% w/w water glucose solution (1 g/kg of rat weight). Serum glucose of blood sample from tail vein was measured by using “Glucose FKD” kit (OOO “Pharamaceutical and clinical diagnostics, Russia) at 0, 30, 60, 90, 120 min. Mean area under the curve (AUC) concentration of blood glucose over time was calculated.

Molecule: CN(CCOc1ccc(CC2SC(=O)NC2=O)cc1)c1ccccn1 (stereo not drawn) [Rosiglitazone]
- decrease in glucose level versus control ([1]; day 14 of the experiment, p<0.05 versus control): 36%

Molecule: insulin: short-acting insulin, 8 units/kg/day subcutaneously, 1/2 of the effective dose
- effect on blood plasma glucose level (in words) ([1]; all observation periods, 1/2 of the effective dose, glucose measured 1 hour after injection): down to the level of the intact control
- glucose tolerance, area under concentration-time curve (AUC) in OGTT (in words) [2]: most effectively increased glucose tolerance
